This note sets out measurements from patent US20210154190A1, “SHP2 INHIBITOR COMPOSITIONS AND METHODS FOR TREATING CANCER” (Revolution Medicines, Inc., priority 2018, published 2021).

Substitutions are numbered along the chain they refer to. Where “and” joins values, the source holds several entries; their conditions need not be identical. Identical values can stand only once. Like-named read-outs stand apart in the source and are kept apart here. Bounds are passed on as bounds.

Common to all, as to type: biochemical
The target in one experiment is T1, human SHP2-FL S502P (Homo sapiens, UniProt Q06124, S502P).
T1 sequence (Q06124 1-593 S502P): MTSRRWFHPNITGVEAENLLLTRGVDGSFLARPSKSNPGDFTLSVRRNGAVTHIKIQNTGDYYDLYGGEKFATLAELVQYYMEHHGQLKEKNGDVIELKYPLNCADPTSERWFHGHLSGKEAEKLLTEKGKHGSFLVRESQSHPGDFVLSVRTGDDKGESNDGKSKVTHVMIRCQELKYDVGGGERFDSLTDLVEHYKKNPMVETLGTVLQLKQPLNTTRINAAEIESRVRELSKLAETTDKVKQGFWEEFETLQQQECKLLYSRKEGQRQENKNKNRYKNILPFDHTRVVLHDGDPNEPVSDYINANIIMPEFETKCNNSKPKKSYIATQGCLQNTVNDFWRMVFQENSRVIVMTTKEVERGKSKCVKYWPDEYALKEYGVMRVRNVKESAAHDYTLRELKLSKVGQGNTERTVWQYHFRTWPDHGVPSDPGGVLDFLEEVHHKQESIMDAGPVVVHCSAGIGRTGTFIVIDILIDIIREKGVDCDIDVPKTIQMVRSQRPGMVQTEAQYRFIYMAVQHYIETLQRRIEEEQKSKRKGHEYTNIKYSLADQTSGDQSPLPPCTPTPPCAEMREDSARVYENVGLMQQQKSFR
The experiment can be described thus: SHP2 allosteric inhibition assay (DiFMUP), S502P. The protocol:
(§1) Full-length SHP2 is allosterically activated through binding of bis-tyrosyl-phorphorylated peptides to its Src Homology 2 (SH2) domains. The latter activation step leads to the release of the auto-inhibitory interface of SHP2, which in turn renders the SHP2 protein tyrosine phosphatase (PTP) active and available for substrate recognition and reaction catalysis. The catalytic activity of SHP2 was monitored using the surrogate substrate DiFMUP in a prompt fluorescence assay format.
(§2) […] […] 50 μl stop solution (0.1 mM sodium pervanadate) was added to each well, the plate was shaken briefly to mix, and read in endpoint mode on a SpectraMax M5 plate reader (Molecular Devices) using excitation and emission wavelengths of 340 nm and 450 nm. Data was imported into GraphPad Prism. Plots of fluorescence intensity vs. log Molar [compound] were created and modeled with a 3-parameter sigmoidal concentration response equation in order to estimate IC50.
(§3) Reactions were then allowed to proceed for 30 minutes and stopped by the addition of a phosphatase inhibitor, sodium pervanadate. De-phosphorylation of DiFMUP results in production of a fluorescent product. Product fluorescence was determined and plotted as a function of compound concentration in order to determine the IC50 for each compound on each mutant using a four parameter sigmoidal dose response function in Prism (GraphPad).
(§4) NsCs mimics the role of the cytosolic domain of a protein tyrosine kinase in this model system.

In the next experiment the target is T2, human SHP2-FL E76K (Homo sapiens, UniProt Q06124, E76K).
T2 sequence (Q06124 1-593 E76K): T1 sequence (Q06124 1-593 S502P) with E76K, P502S
The experiment can be described thus: SHP2 allosteric inhibition assay (DiFMUP), E76K. The conditions noted are these: for IC50: SHP2 E76K.
Excerpt: as §1
Diluted inhibitor (5 μL) was mixed with activated enzyme (25 μl) and incubated for 30 minutes at room temperature. […] 50 μl stop solution (0.1 mM sodium pervanadate) was added to each well, the plate was shaken briefly to mix, and read in endpoint mode on a SpectraMax M5 plate reader (Molecular Devices) using excitation and emission wavelengths of 340 nm and 450 nm. Data was imported into GraphPad Prism. Plots of fluorescence intensity vs. log Molar [compound] were created and modeled with a 3-parameter sigmoidal concentration response equation in order to estimate IC50.
as §3, §4

The next experiment addresses T3, human SHP2-FL F285S (Homo sapiens, UniProt Q06124, F285S).
T3 sequence (Q06124 1-593 F285S): T1 sequence (Q06124 1-593 S502P) with F285S, P502S
The experiment is described as follows: SHP2 allosteric inhibition assay (DiFMUP), F285S. As for the experimental part: as §1, §2, §3, §4

For the molecule `Nc1nc(N2CCC3(CCC[C@H]3N)CC2)cnc1Sc1ccnc(Cl)c1Cl` [Compound 1], the IC50 on human SHP2-FL S502P (IC50 (nM), SHP2 S502P 0.5 μM NsCs peptide (Activated), human SHP2-FL S502P in presence of 0.5 μM NsCs peptide (activated)) was more than 10000 nM; on human SHP2-FL S502P (human SHP2-FL S502P alone, no peptide (non-activated), read-out: IC50 (nM), SHP2 S502P No Peptide Control (Non-Activated)), 237 nM and 227 nM and 221 nM and 308 nM; on human SHP2-FL S502P (human SHP2-FL S502P alone, no peptide (non-activated), read-out: pIC50, SHP2 S502P No Peptide Control (Non-Activated) (converted)) it was 234 nM and 229 nM and 219 nM and 309 nM; on human SHP2-FL S502P (pIC50, SHP2 S502P 0.5 μM NsCs peptide (Activated), human SHP2-FL S502P in presence of 0.5 μM NsCs peptide (activated)), more than 10000 nM; at human SHP2-FL E76K (0.5 μM NsCs peptide (Activated), read-out: IC50) it was > 10000 nM and 13100 nM and 10400 nM; at human SHP2-FL E76K (No Peptide Control (Non-Activated), read-out: pIC50 (converted)), 53.7 nM and 58.9 nM and 50.1 nM. Besides, the IC50 is 3.76 nM and 9.08 nM and 8.38 nM and 15.1 nM at human SHP2-FL F285S (IC50 (nM), SHP2 F285S 0.5 μM NsCs peptide (Activated), human SHP2-FL F285S, 0.5 μM NsCs peptide (activated)); 1.57 nM and 1.55 nM and 1.04 nM and 1.19 nM on human SHP2-FL F285S (human SHP2-FL F285S alone, no peptide (non-activated), read-out: IC50 (nM), SHP2 F285S No Peptide Control (Non-Activated)); 1.55 nM and 1.05 nM and 1.2 nM at human SHP2-FL F285S (human SHP2-FL F285S alone, no peptide (non-activated), read-out: pIC50, SHP2 F285S No Peptide Control (Non-Activated) (converted)); 3.72 nM and 9.12 nM and 8.32 nM and 15.1 nM against human SHP2-FL F285S (pIC50, SHP2 F285S 0.5 μM NsCs peptide (Activated), human SHP2-FL F285S, 0.5 μM NsCs peptide (activated)).

Regarding `Cc1nc(N2CCC3(CC2)CO[C@@H](C)[C@H]3N)c(CO)nc1-c1cccc(Cl)c1Cl` [Compound B], the Biochemical sensitivity result is given as “no (Sensitive if IC50 < 2000 nM)” at human SHP2-FL S502P (Variant S502P), “no (Sensitive if IC50 < 2000 nM)” at human SHP2-FL E76K (Variant E76K) and “yes (Sensitive if IC50 < 2000 nM)” on human SHP2-FL F285S (Variant F285S).
